Results taken from patent US9567643B2, “Compositions and methods for treating cancers” (Aptose Biosciences Inc., priority 2013, dated 2017).
Where a name gives a salt, the structure may show the parent alone.

Columns and labels:
[1] = system: advanced or metastatic solid tumours; test: Open-label phase 1 dose-escalating study; format: in vivo
Method: Phase I: This was an open-label, phase 1 study to determine the maximum tolerated dose (MTD) or appropriate target dose if MTD not reached to identify the recommended phase 2 dose of LOR-253 HCl in patients with advanced or metastatic solid tumours. In the first set of doses, LOR-253 HCl was given in ascending doses until the maximum administered dose or appropriate target dose is reached. In the other set of doses, LOR-253 HCl was given in ascending doses starting from 20 mg/m2 until the maximum administered dose or appropriate target dose is reached. Patient as treated on LOR-253 HCl for 2 cycles for the evaluation. • Other Name: No other names are used. • Study Type: Interventional • Study Design: • Endpoint Classification: Safety Study • Intervention Model: Single Group Assignment • Masking: Open Label • Primary Purpose: Treatment • Official Title: Open-Label, Phase 1 Study of LOR-253 HCl in Patients With Advanced or Metastatic Solid Tumours Primary Outcome Measures: • To determine the maximum tolerated dose (MTD) or appropriate target dose if MTD not reached to identify the recommended phase 2 dose of LOR-253 HCl in patients with advanced or metastatic solid tumours. [Time Frame: 8 weeks] Secondary Outcome Measures: • To characterize the safety profile of LOR-253 HCl when administered to patients with advanced or metastatic solid tumours. [Time Frame: 8 weeks] Inclusion Criteria: • 1. Male or female 18 years of age or older. • 2. Histologically confirmed diagnosis of solid tumor for which no effective therapy is available or that is unresponsive to conventional therapy. • 3. Meet laboratory parameter requirements at study entry. Exclusion Criteria: • 1. Chemotherapy, radiotherapy, biologic therapy, immunotherapy or any other investigational drugs within 21 days of beginning study treatment with LOR-253 HCl. • 2. A hematologic malignancy. • 3. A history of brain or other central nervous system metastases. • 4. Have a presence of a significant infection. • 5. Clinically significant autoimmune disease. • 6. Uncontrolled intercurrent illness. • 7. With iron or copper overload syndromes. • 8. Pregnancy or breast feeding.

Kasumi-1 = Kasumi-1 AML xenograft model; format: in vivo, athymic nude mice; settings: Kasumi-1 xenograft; 30 mg/kg (15 mg/kg twice per day) i.v., two consecutive days per week, four weeks; p=0.028 by Student's t-test; FIG. 15
Method: (§1) The anti-tumor activity of LOR-253 HCl was evaluated in another in vivo animal model of human AML. The human AML cell line Kasumi-1 was implanted subcutaneously into athymic nude mice. Some tumor-bearing mice were treated with LOR-253 HCl at 30 mg/kg (15 mg/kg twice per day) for two consecutive days per week for four weeks (the “LOR-253 treatment group”). LOR-253 was administered by intravenous (i.v.) bolus injection as the hydrochloric salt form (LOR-253-HCl) formulated in 20% Polyethylene Glycol 400, 10% Propylene Glycol, and 10% Solutol HS in 60% water.
(§2) The major endpoint was to observe for tumor growth inhibition after treatment with LOR-253 HCl and compare the anti-tumor effects of different dosing schedules. Tumor sizes were measured three times per week from day 10 after the tumor cell inoculation. Tumors were measured in three dimensions using calipers and the volume was expressed in millimeters cubed using the formula: V=0.5a×b×c, where a, b, and c are the length, width, and height of the tumor, respectively. Mean tumor volumes+/−standard error (SE) were calculated from each measurement and then plotted in a standard graph to compare the anti-tumor efficacy of drug treatment to that of control (FIG. 15). Toxicity was assessed by clinical observations and by measurement of mouse body weight in grams twice per week over the course of the study. […]

[2] = Toxicity assessment in Kasumi-1 tumor-bearing mice; settings: 15 mg/kg twice per day i.v., two days per week, four weeks
Method: as §1, §2

HL-60 = HL-60 AML xenograft model; format: in vivo, athymic nude mice; settings: HL-60 xenograft, 3 cycles, FIG. 17
Method: The human AML cell line HL-60 was implanted subcutaneously into athymic nude mice. Tumor-bearing mice were treated with LOR-253 HCl alone or in combination with azacitidine, with azacitidine alone, or with a negative control vehicle. The detailed treatment conditions are as follows. • Group 1: Negative control group. LOR-253 HCl control vehicle, 2×/day, 3 cycles of 2 consecutive days, 5 days between cycles, i.v., plus 1% D-mannitol every four days by s.c. injection • Group 2: Azacitidine (in 1% D-mannitol) at 10 mg/kg 1× on days 1, 4, 8, 11, 15 and 18 by subcutaneous (s.c.) injection • Group 3: LOR-253 HCl at 15 mg/kg bid for 3 cycles, each cycle is 2 consecutive days of dosing per week with 5 days of non-dosing, i.v., n=9 (2T-5B) • Group 4: LOR-253 HCl at 15 mg/kg 2×/day (bid) for 3 cycles, each cycle is 1 day of dosing per week with 6 days of non-dosing, i.v., n=9 (1T-6B) • Group 5: Combination of LOR-253 (2T-5B) and azacitidine. LOR-253 HCl at 15 mg/kg bid for 3 cycles, each cycle is 2 consecutive days of dosing per week with 5 days of non-dosing, i.v., n=9 (2T-5B) plus azacitidine at 10 mg/kg 1× every four days by s.c. injection • Group 6: Combination of LOR-253 (1T-6B) and azacitidine. […]
Tumor sizes were measured three times per week.

KG-1 = KG-1 AML xenograft model; format: in vivo, mice; settings: KG-1 xenograft; 15 mg/kg-iv, bid, 2T/wk; FIG. 20
Method: Xenograft model mice for AML cell line KG-1 was generated with the same method as in Examples 14 and 15, and were treated with LOR-253 HCl or control according to the following regime.
LOR-253—15 mg/kg-iv, bid, 2T/wk—Day 1

THP-1 = THP-1 AML xenograft model; format: in vivo, mice; settings: THP-1 xenograft; Group-2: i.v. Days 1, 2, 8, 9, 15, 16 and IP Days 22-25, 29, 30; FIG. 21
Method: The anti-tumor activity of LOR-253 HCl, as a single agent and in combination with azacitidine, was evaluated in yet another in vivo animal model of human AML. Xenograft model mice for AML cell line THP-1 was generated with the same method as in Examples 14 and 15, and were treated with LOR-253 HCl alone or in combination with azacitidine, with azacitidine alone, or with a negative control vehicle, and tumor sizes were measured as described in Examples 14 and 15. The detailed treatment conditions are shown as follows, and the results are shown in FIG. 21. • Group 1 Control: received i.v. treatments with LOR-253 control vehicle (CV) on Days 1, 2, 8, 9, 15 &16; received subcutaneous (SC) treatments with Azacitidine control vehicle on Days 1, 4, 8, 11, 15, 18, 22, 25, 29 &32; and received intraperitoneal (IP) treatments with LOR-253-CV on Days 22, 23, 24, 25, 29&30. • Group-2—LOR-253: received i.v. treatments on Days 1, 2, 8, 9, 15 &16; received IP treatments on Days 22, 23, 24, 25, 29&30 • Group-3—Azacitidine: received SC treatments on Days 1, 4, 8, 11, 15, 18, 22, 25, 29 &32. • Group-4—Combination: received i.v. treatments with LOR-253 on Days 1, 2, 8, 9, 15 &16; received IP treatments with LOR-253 on Days 22, 23, 24 &25; and received SC-treatment with Azacitidine on Days 1, 4, 8, 11, 15, 18, 22 &25

[3] = Pharmacokinetics, serum level after i.v. bolus; format: in vivo; settings: CD-1 nude mice; i.v. bolus of LOR-253 HCl at 1, 5, 15 mg/kg; FIG. 10
Method: To study the pharmacokinetic (PK) […], CD-1 nude mice were treated by i.v. bolus injections of LOR-253 HCl at 1, 5, and 15 mg/kg. The serum level of LOR-253 was measured.

[4] = Repeat-dose toxicity study, cardiovascular effects; format: in vivo; settings: dogs, highest dose tested (data not shown)
[5] = molecular target: hERG tail current density (Homo sapiens, UniProt Q12809); test: hERG tail current inhibition; format: cell-based; settings: preclinical testing
CYP450 enzymes = test: CYP450 inhibition; format: in vitro ADME; settings: preclinical testing
[6] = GLP blood compatibility studies
[7] = patients with advanced solid tumors, phase I

Chain of hERG tail current density (Q12809 whole entry): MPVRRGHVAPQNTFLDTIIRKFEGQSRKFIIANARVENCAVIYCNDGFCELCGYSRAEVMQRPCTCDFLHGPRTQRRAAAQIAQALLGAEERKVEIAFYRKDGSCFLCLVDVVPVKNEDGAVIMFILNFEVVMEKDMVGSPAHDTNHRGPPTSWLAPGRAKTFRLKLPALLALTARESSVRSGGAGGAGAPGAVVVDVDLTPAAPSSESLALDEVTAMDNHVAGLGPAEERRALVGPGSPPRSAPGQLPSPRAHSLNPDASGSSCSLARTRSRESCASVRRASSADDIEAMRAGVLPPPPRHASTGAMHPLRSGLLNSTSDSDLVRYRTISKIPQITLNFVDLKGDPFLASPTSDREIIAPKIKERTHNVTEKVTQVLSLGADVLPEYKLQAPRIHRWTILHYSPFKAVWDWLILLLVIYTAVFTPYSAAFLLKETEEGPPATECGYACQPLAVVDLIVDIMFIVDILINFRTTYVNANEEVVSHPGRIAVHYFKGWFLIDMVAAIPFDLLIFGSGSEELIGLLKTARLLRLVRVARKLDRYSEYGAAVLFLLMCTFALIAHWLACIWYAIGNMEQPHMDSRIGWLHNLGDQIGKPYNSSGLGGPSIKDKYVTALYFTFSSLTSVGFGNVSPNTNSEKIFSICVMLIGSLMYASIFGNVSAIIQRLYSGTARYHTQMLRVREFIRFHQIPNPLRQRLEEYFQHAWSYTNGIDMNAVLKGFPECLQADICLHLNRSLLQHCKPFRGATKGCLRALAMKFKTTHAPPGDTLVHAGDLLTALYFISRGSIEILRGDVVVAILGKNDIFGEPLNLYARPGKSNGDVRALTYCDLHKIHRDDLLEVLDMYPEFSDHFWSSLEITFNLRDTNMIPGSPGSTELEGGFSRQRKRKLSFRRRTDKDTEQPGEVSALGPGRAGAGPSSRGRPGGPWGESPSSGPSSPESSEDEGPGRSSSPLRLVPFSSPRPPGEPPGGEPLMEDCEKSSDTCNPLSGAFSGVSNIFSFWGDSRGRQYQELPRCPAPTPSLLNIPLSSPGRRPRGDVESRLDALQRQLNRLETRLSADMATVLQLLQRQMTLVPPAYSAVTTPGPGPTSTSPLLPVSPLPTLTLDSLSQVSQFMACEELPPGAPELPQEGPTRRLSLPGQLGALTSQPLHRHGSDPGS

SMILES	safety profile ([1]; N=27 patients across 7 dose levels, phase I)	tumor response in single patient ([1]; patient with NSCLC (poorly differentiated adenocarcinoma) and extensive metastases refractory to prior therapies, FIG. 12)	RECIST partial response [1, 7]	most common AE and SAE [1, 7]	Stable Disease, share of evaluable patients ([1]; patients with advanced solid tumors, phase I, 7 dose levels)	tumor growth inhibition vs vehicle control (Kasumi-1)	overt signs of toxicity (clinical observations) [2]	body weight ([2]; FIG. 16)	inhibition of tumor growth, single agent (HL-60; Group 3: 15 mg/kg twice per day i.v., two consecutive days per week (2T-5B))	inhibition of tumor growth, single agent (HL-60; Group 4: 15 mg/kg twice per day i.v., one day per week (1T-6B))	tumor growth inhibition, single agent (KG-1)	inhibition of tumor growth, single agent (THP-1)	serum level of LOR-253 [3]	cardiovascular effects [4]	inhibition of hERG tail current density [5]	inhibition of CYP450 enzymes (CYP450 enzymes)	blood compatibility of IV formulation [6]
Cc1[nH]c2ccc(F)cc2c1-c1nc2c3cccnc3c3ncccc3c2[nH]1 [LOR-253 HCl]	Excellent Safety Profile	Tumor shrinkage	No RECIST PR	Fatigue and 1 case of reversible hypophosphatemia	41%	significant tumor growth inhibition	did not show other overt signs of toxicity	did not show body weight loss	approximately the same extent as or slightly more than azacitidine alone	approximately the same extent as or slightly more than azacitidine alone	significant tumor growth inhibition	about the same extent as or slightly more than azacitidine alone	–	–	–	–	–
Cc1[nH]c2ccc(F)cc2c1-c1nc2c3cccnc3c3ncccc3c2[nH]1 [LOR-253]	–	–	–	–	–	–	–	–	–	–	–	–	dose related increase	no treatment-related cardiovascular effects	no significant inhibition	no significant inhibition	confirmed the suitability of IV formulation
